In patent US20060057732A1, “Methods in the diagnosis of pulmonary embolism” (Aerocrine AB, priority 2004, published 2006):

Legend:
[1] = Thrombin infusion as pro-thrombotic challenge; format: in vivo, rabbit; conditions: thrombin 10-250 Units; when cardiovascular parameters indicated a thrombotic event
Protocol: Another experiment was performed with infusion of thrombin (10-250 Units) as pro-thrombotic challenge. Also in this experiment, an increase in exhaled NO was obtained when measurement of cardiovascular parameters indicated an activation of a thrombotic event.

[2] = test system: NO-production; assay: L-NAME pre-treatment (inhibited NO-production) before and during muscle emboli challenge in anaesthetised rabbits (Group 2); format: in vivo
Protocol: The experiments were approved by the local animal ethics committee. Male white New Zealand rabbits (n=20, body weight 2.456±0.086 kg) were anaesthetised via an ear vein with sodium pentobarbital, 6 mg ml^−1 in normal saline, 40-60 mg kg^−1. The animals were placed in supine position and tracheotomised just below the cricoid cartilage to allow mechanical ventilation using a tracheal cannula with an outer diameter of 5 mm. The animals were ventilated by a Harvard Apparatus rodent ventilator (model 683, Harvard Apparatus, South Natick, Mass., USA). The ventilator was supplied with NO-free air using a charcoal filter (110×11 cm). Ventilation rate was 40 min^−1 at constant volume where the tidal volume was initially adjusted to keep the end-tidal CO2 at 4.5-5.3% as determined by a ventilatory monitor (Oscar-Oxy, Datex, Helsinki, Finland) sampling gas (150 ml min^−1, 15-20% of minute ventilation) from one of two side-arms connected to the tracheal cannula, and using a de-humidifying tube. The minute ventilation was 0.64-0.96 l min^−1. To the other side arm a pressure transducer (Statham, Hato Rey, Puerto Rico) was connected thus monitoring the insufflation pressure. The gas from the ventilator outlet was led through a switching valve to either of two beakers creating a positive end-expiratory pressure (PEEP) of 1-2 cmH2O or 4-5 cmH2O. During the experiment the gas flow was altered between the lower PEEP (9 min) and the higher PEEP (1 min) with an interval of totally 10 min. A continuous infusion containing glucose (24.3 g l^−1), dextran 70 (26.5 g l^−1), NaHCO3 (6,2 g l^−1), sodium pentobarbital (4.1 g l^−1) and pancuronium bromide ([…]) was administrated at a rate of 5 ml kg^−1 h^−1 via the same ear vein by means of a Terumo STC-521 syringe pump (Terumo Corp., Tokyo, Japan). A heparinised catheter was inserted in the left common carotid artery for blood pressure and heart rate recordings (pressure transducer, Staham, Hato Rey, Puerto Rico), and arterial blood sampling. Another catheter was inserted in the right jugular vein for drug and muscle emboli administration. Body temperature was maintained at 37-38.5° C. by means of a heating pad connected to a thermostat. The muscles from the anterior compartment of the right lower hind limb were resected and placed in normal saline. Hereafter the animals were allowed a 30-60 min intervention-free period to obtain stable circulatory conditions and stable concentrations of expired NO.
NO concentration, in mixed exhaled gas, was continuously measured by means of a chemiluminescence based system (NIOX®, AEROCRINE AB, Solna, Sweden) sampling at 100 ml min^−1 at the end of a mixing chamber connected to the ventilator exhaust. The full mixing of expired air thus measured on was intermittently checked by monitor CO2 concentration in the same chamber. In a few experiments, gas for NO measurement was sampled from the trachea at the same point as for tidal CO2 measurements, thus yielding breath by breath NO concentrations. Calibration was done using certified NO standard gas in nitrogen (AGA Specialgas, Lidingö, Sweden).
The resected muscle tissue was cleared from all visible connective tissue and then homogenized and dissolved in normal saline to a concentration of 0,1 g muscle ml^−1. 50 IE heparin was added to the mixture. The homogenate was filtered through a filter (500 μm) to prevent clotting in the three way stop-cock.
The animals were divided into two groups; 1) one group receiving a high dose (58-120 mg kg^−1) muscle homogenate and 2) a second group receiving the nitric oxide inhibitor L-NAME (30 mg kg^−1) 40 min before challenge with lower doses (30 to 7.5 mg kg^−1) muscle homogenate, since initial pilot experiments indicated a marked enhancement of emboli effects after L-NAME pre-treatment. […]

[3] = Group 2, during L-NAME pre-treatment, time -5 min, before challenge

Row | Molecule | exhaled NO change [1] | PaCO2 [2, 3] | PaO2 [2, 3] | pH (arterial) [2, 3] | ETCO2 after L-NAME infusion ([2]; L-NAME 30 mg kg-1, before muscle emboli challenge (time=-5), before L-NAME 4.9±0.1) | FENO after L-NAME infusion ([2]; L-NAME 30 mg kg-1, before muscle emboli challenge (time=-5), before L-NAME 20.9±1.0 ppb, n=4) | MAP after L-NAME infusion ([2]; L-NAME 30 mg kg-1, before muscle emboli challenge (time=-5), before L-NAME 105±6) | HR after L-NAME infusion ([2]; L-NAME 30 mg kg-1, before muscle emboli challenge (time=-5), before L-NAME 286±11) | ETCO2, lowest observed value ([2]; L-NAME 30 mg kg-1 pre-treatment + muscle emboli infusion, at 4 min, n=4 incl. dead animals) | MAP, first drop ([2]; L-NAME 30 mg kg-1 pre-treatment + muscle emboli infusion, at 12 min) | MAP, lowest observed value ([2]; L-NAME 30 mg kg-1 pre-treatment + muscle emboli infusion, at 60 min) | HR change ([2]; L-NAME 30 mg kg-1 pre-treatment + muscle emboli infusion, not significant) | Survival after muscle emboli infusion ([2]; L-NAME 30 mg kg-1 pre-treatment, 7.5 to 30 mg kg-1 homogenate, four rabbits)
1 | thrombin | increase |  |  |  |  |  |  |  |  |  |  |  | 
2 | COC(=O)[C@@H](N)CCCNC(=N)N[N+](=O)[O-] [L-NAME, N^G-nitro-L-arginine methyl ester] |  | 4.3 ± 0.2 kPa | 8.6 ± 0.6 kPa | 7.50 ± 0.02 | 4.8±0.2 kPa | 0 ppb | 121±8.2 cmH2O | 314±34 beats min^-1 | 2.6±1.1 kPa | 52.4±25.5 cmH2O | 44.4±29.6 cmH2O | decreased | two animals survived 60 min
